Measured values taken from patent publication US9828345B2, “Phenylpyrazole derivatives as potent ROCK1 and ROCK2 inhibitors” (BRISTOL-MYERS SQUIBB COMPANY, priority 2013, dated 2017).
Like-named read-outs stand apart in the source and are kept apart here.

Experiments:
ROCK1 = ROCK1 (Homo sapiens, UniProt Q13464); assay: ROCK assay (Caliper LABCHIP peptide phosphorylation), ROCK1; type: biochemical; details: 5 μM ATP, 1.5 μM peptide substrate
ROCK2 = ROCK2 (Homo sapiens, UniProt O75116); assay: ROCK assay (Caliper LABCHIP peptide phosphorylation), ROCK2; type: biochemical; details: 5 μM ATP, 1.5 μM peptide substrate
[1] = test system: IL-1 beta-induced coronary stenosis; details: long term treatment; cited from earlier work
rat stroke model = details: in vivo; cited from earlier work
[2] = test system: spontaneously hypertensive rat, renal hypertensive rat and deoxycortisone acetate salt hypertensive rat models; details: cited from earlier work
neointimal formation = details: rats; cited from earlier work
[3] = test system: congestive heart failure in Dahl salt-sensitive rats; details: rat, in vivo; cited from earlier work

Sequence of ROCK1 (Q13464 whole entry, species assumed): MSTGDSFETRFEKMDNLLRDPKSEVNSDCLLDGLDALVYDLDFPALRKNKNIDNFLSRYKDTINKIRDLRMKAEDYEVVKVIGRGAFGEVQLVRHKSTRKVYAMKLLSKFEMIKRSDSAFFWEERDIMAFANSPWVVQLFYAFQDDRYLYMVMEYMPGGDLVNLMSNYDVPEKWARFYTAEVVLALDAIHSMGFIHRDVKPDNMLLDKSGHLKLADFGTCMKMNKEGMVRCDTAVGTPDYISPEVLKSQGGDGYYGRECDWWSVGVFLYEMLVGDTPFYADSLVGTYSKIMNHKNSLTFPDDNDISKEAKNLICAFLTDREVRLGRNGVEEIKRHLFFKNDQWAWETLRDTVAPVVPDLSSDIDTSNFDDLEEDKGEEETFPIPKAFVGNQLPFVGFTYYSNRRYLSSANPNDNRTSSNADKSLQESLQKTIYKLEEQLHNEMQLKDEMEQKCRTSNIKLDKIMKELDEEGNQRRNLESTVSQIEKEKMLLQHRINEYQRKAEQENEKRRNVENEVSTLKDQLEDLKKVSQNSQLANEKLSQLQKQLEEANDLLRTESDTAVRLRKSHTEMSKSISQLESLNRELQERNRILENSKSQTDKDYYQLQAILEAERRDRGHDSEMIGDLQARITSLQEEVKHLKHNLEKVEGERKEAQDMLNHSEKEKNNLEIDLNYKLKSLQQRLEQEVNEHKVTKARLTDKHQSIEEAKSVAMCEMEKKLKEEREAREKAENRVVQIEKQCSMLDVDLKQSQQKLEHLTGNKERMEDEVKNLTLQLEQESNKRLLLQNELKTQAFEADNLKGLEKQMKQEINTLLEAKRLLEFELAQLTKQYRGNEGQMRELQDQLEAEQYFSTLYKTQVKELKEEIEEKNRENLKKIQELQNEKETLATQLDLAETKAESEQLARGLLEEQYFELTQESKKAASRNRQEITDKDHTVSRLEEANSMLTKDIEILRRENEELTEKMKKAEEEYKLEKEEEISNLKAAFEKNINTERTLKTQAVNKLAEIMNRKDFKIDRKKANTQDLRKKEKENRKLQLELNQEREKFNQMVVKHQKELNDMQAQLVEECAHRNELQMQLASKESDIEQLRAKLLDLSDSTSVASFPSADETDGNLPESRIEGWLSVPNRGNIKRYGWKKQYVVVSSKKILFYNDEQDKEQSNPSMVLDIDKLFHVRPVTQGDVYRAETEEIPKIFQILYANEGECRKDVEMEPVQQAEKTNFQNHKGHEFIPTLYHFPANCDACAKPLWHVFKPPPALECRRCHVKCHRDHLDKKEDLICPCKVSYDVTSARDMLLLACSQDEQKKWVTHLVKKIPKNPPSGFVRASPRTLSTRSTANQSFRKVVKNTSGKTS
Sequence of ROCK2 (O75116 whole entry, species assumed): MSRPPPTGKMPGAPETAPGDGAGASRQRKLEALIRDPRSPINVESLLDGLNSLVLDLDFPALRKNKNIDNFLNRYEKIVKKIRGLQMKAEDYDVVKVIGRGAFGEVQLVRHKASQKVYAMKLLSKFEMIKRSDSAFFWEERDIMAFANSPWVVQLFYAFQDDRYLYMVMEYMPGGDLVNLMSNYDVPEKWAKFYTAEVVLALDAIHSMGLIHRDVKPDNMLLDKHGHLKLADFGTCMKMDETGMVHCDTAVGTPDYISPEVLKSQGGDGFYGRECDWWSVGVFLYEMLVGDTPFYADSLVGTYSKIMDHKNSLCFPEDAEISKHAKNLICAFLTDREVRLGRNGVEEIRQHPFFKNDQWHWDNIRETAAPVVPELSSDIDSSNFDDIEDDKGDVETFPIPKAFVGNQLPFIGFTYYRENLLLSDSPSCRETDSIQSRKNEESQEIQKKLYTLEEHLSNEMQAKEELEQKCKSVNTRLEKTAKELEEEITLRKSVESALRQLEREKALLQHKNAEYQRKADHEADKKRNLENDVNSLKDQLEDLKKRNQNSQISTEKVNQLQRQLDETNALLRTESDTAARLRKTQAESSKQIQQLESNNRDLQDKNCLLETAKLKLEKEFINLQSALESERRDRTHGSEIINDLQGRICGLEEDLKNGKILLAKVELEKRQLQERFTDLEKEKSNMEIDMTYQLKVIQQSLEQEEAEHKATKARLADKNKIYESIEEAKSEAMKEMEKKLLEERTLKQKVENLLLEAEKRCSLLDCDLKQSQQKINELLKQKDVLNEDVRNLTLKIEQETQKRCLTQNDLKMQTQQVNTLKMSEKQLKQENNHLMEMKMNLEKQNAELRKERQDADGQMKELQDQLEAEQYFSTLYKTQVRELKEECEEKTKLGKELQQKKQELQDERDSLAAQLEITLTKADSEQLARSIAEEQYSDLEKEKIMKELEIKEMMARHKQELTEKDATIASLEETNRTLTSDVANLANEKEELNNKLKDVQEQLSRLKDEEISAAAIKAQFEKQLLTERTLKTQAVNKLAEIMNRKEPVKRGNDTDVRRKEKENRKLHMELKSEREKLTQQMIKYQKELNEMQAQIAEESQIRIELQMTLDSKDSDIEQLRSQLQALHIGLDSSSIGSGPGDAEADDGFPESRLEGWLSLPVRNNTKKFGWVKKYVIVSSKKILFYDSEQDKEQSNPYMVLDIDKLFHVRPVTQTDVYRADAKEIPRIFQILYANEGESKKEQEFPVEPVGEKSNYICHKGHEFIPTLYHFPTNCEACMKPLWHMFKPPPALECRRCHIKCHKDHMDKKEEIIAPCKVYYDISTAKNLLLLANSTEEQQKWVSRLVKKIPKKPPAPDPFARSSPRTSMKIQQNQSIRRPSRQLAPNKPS

Question: With `COc1cc(NC(=O)[C@H](N)Cc2ccccc2C(F)(F)F)ccc1-c1cn[nH]c1` [Example 12, (R)-2-amino-N-(3-methoxy-4-(1H-pyrazol-4-yl)phenyl)-3-(2-(trifluoromethyl)phenyl)propanamide] as the molecule, how does the IC50 (ROCK1) read?
Answer: 0.0199 µM

Question: And the IC50 (ROCK2)?
Answer: 0.0236 µM

Question: Which IC50 (ROCK1) does the source give for `CN(C)CCOc1cc(-c2cn[nH]c2)c(F)cc1NC(=O)[C@H](N)CCc1ccccc1` [Example 27, (R)-2-Amino-N-(2-(2-(dimethylamino)ethoxy)-5-fluoro-4-(1H-pyrazol-4-yl)phenyl)-4-phenylbutanamide] here?
Answer: 0.874 µM

Question: And the IC50 (ROCK2)?
Answer: 0.343 µM

Question: With `COc1cc(NC(=O)[C@H](N)Cc2cccc(C(F)(F)F)c2)ccc1-c1cn[nH]c1` [Example 11, (R)-2-amino-N-(3-methoxy-4-(1H-pyrazol-4-yl)phenyl)-3-(3-(trifluoromethyl)phenyl)propanamide] as the molecule, how does the IC50 (ROCK1) read?
Answer: 0.05 µM

Question: What about the IC50 (ROCK2) of the same molecule?
Answer: 0.0143 µM

Question: Which results are given for `N[C@H](CCc1ccccc1)C(=O)Nc1ccc(-c2cn[nH]c2)cc1` [Example 28, (R)—N-(4-(1H-Pyrazol-4-yl)phenyl)-2-amino-4-phenylbutanamide]?
Answer: IC50 (ROCK1): 0.0425 µM; IC50 (ROCK2): 0.0178 µM

Question: With `COc1cc(NC(=O)[C@H](N)Cc2cc(F)cc(F)c2)ccc1-c1cn[nH]c1` [Example 14, (R)-2-amino-3-(3,5-difluorophenyl)-N-(3-methoxy-4-(1H-pyrazol-4-yl)phenyl) propanamide] as the molecule, how does the IC50 (ROCK1) read?
Answer: 0.0126 µM

Question: And the IC50 (ROCK2)?
Answer: 0.0134 µM

Question: For `O=S(=O)(c1cccc2cnccc12)N1CCCNCC1` [fasudil], which coronary constrictive remodeling [1] is on record?
Answer: promote a regression of coronary constrictive remodeling

Question: What about the coronary stenosis [1] of the same molecule?
Answer: progressively reduce coronary stenosis

Question: What about the “infarct size and neurologic deficit” value (rat stroke model) of the same molecule?
Answer: reduce both the infarct size and neurologic deficit

Question: With `C[C@@H](N)[C@H]1CC[C@H](C(=O)Nc2ccncc2)CC1` [Example Y-27632, Y-27632] as the molecule, how does the blood pressure ([2]; control rats) read?
Answer: only a minor effect on blood pressure

Question: And the blood pressure ([2]; three rat models of hypertension)?
Answer: significantly decrease blood pressure

Question: What about the neointimal formation (neointimal formation) of the same molecule?
Answer: inhibited neointimal formation

Question: What about the “ventricular hypertrophy, fibrosis and function” value [3] of the same molecule?
Answer: improve ventricular hypertrophy, fibrosis and function

Question: With `COc1cc(NC(=O)[C@H](N)Cc2ccccc2Cl)ccc1-c1cn[nH]c1` [Example 19, (R)-2-amino-3-(2-chlorophenyl)-N-(3-methoxy-4-(1H-pyrazol-4-yl)phenyl) propanamide] as the molecule, how does the IC50 (ROCK1) read?
Answer: 0.0139 µM

Question: And the IC50 (ROCK2)?
Answer: 0.0375 µM

Question: Which results are given for `O=C(Cc1ccccc1Cl)Nc1ccc(-c2cn[nH]c2)cc1` [Example 29, N-(4-(1H-Pyrazol-4-yl)phenyl)-2-(2-chlorophenyl)acetamide]?
Answer: IC50 (ROCK1): 0.0196 µM; IC50 (ROCK2): 0.00406 µM

Question: For `COc1cc(NC(=O)[C@H](N)Cc2ccc(-c3ccccc3)cc2)ccc1-c1cn[nH]c1` [Example 13, (R)-3-([1,1′-biphenyl]-4-yl)-2-amino-N-(3-methoxy-4-(1H-pyrazol-4-yl)phenyl)propanamide], which IC50 (ROCK1) is on record?
Answer: 0.0684 µM

Question: And the IC50 (ROCK2)?
Answer: 0.0103 µM

Question: What does the source list for `COc1cc(NC(=O)[C@@H](N)Cc2csc3ccccc23)ccc1-c1cn[nH]c1` [Example 9, (S)-2-amino-3-(benzo[b]thiophen-3-yl)-N-(3-methoxy-4-(1H-pyrazol-4-yl)phenyl) propanamide]?
Answer: IC50 (ROCK1): 0.0316 µM; IC50 (ROCK2): 0.0179 µM

Question: Which results are given for `COc1cc(NC(=O)[C@H](N)Cc2ccc3ccccc3c2)ccc1-c1cn[nH]c1` [Example 6, (R)-2-amino-N-(3-methoxy-4-(1H-pyrazol-4-yl)phenyl)-3-(naphthalen-2-yl)propanamide]?
Answer: IC50 (ROCK1): 0.00878 µM; IC50 (ROCK2): 0.00325 µM

Question: Which IC50 (ROCK1) does the source give for `COc1cc(NC(=O)[C@H](N)CCc2ccccc2)ccc1-c1c[nH]nc1C` [Example 30, (R)-2-Amino-N-(3-methoxy-4-(3-methyl-1H-pyrazol-4-yl)phenyl)-4-phenylbutanamide] here?
Answer: 0.232 µM

Question: What about the IC50 (ROCK2) of the same molecule?
Answer: 0.167 µM

Question: What does the source list for `O=C(Cc1ccccc1Cl)Nc1ccc(-c2cn[nH]c2)cc1OCCN1CCCC1` [Example 23, N-(4-(1H-Pyrazol-4-yl)-2-(2-(pyrrolidin-1-yl)ethoxy)phenyl)-2-(2-chlorophenyl)acetamide]?
Answer: IC50 (ROCK1): 0.111 µM; IC50 (ROCK2): 0.00851 µM
